# Measured values: US11629141B2, “Proteasome inhibitors and uses thereof” (CORNELL UNIVERSITY, priority 2015, dated 2023)
# “Also recorded” adds a separate entry of the source. Where two headings read alike, the source gives them in different places.
# Key:
# Pf20S β5 = assay: Labeling of Pf20S active subunits by activity probe MV151 in Pf lysates; format: biochemical, P. falciparum; conditions: 1 hour with inhibitor, then MV151 (2 μM) 1 hour
# Method: Pf lysates were incubated with inhibitors at indicated concentrations for 1 hour prior to incubation with MV151 (2 μM) for an additional hour. SDS pages were scanned on a Typhoon fluorescent scanner. […] BTZ was used as a positive control.
# P. falciparum schizonts = assay: Accumulation of poly-ubiquitinated proteins in P. falciparum schizonts; format: cell-based; conditions: 4 hours post treatment
# c-20S β5c = target: T1, c-20S β5c (Homo sapiens, UniProt P28074); assay: Kinetic analysis, substrate titration of c-20S steady state velocities; format: biochemical
# T1 construct: purchased Boston Biochem Inc
# Method: FIGS. 1A-1E are graphs showing inhibition modality of PKS21004 against human proteasomes. Washout of c-20S from the preincubated c-20S and […] to recover the β5c activity (FIG. 1A). Substrate titration of hu i-20S (FIG. 1B) and c-20S (FIG. 1D) steady state velocities in the presence of PKS21004 at the concentrations indicated next to each curve. Data as in (FIG. 1B) were plotted double reciprocal in (FIG. 1C), and (FIG. 1D) in (FIG. 1E).
# A washout experiment was used to confirm the reversibility of this class of proteasome inhibitors, as expected from their non-covalent chemistry.
# Plasmodium falciparum = assay: Growth of Plasmodium falciparum in red blood cells (SYBR Green, 72 hours); format: cell-based
# Method: Continuous in vitro cultures of Plasmodium falciparum: were maintained in human red blood cells (RBC) diluted to a hematocrit of 5% in RPMI 1640 medium with HEPES and Hypoxanthine and completed with 0.5% Albumax II (Invitrogen), 0.25% sodium bicarbonate, and 0.1 mg/ml gentamicin. Parasites were incubated at 37° C. in a gas mixture of 5% oxygen, 5% carbon dioxide, and 90% nitrogen.
# Parasite sensitivity to novel compounds were determined using a SYBR Green (Invitrogen S1046) drug assay protocol. P. falciparum of various clinic stains were cultured with compounds at concentrations in a series of dilution in a clear, sterile 96-well plate for 72 hours. Subsequently, 150 μl of the cultures were transferred to a black 96-well plate and placed in the freezer for red blood cell lysis. The plates were thawed and suspended in a Sybr Green Lysis buffer. GraphPad Prism was used to analyze the raw data collected […]. Drug concentrations were converted to logarithms, normalized, and then curve fitted by non-linear regression to obtain EC50 values.
# Plasmodium falciparum: parasites were cultured in human red cells. Drug assays were run in 96 well plates at a total volume of 200 μl. Assays were set up at a starting parasitemia (percent of infected red cells) of 0.5%. Test compounds were plated at concentrations of 2778 nM to 0.4 nM. The test plates were grown under standard low oxygen conditions at 37° C. for 72 hours. At that time the plates were prepared for growth determination, first the plates were frozen and thawed to lyse the red blood cells, 150 μl of the lysed thawed culture was transferred to a black 96 well plate, and mixed in a lysis buffer with SYBR green DNA dye. The fluorescence of each well was recorded in a plate reader with excitation wavelength 490 nm and emission wavelength 530 nm and normalized relative to DMSO control. The EC50s were determined using Prism software.
# P. berghei = assay: Killing of P. berghei sporozoite stage in HepG2 cells; format: cell-based; conditions: Plasmodium berghei
# [1] = target: T2, human immunoproteasome β5i (Homo sapiens, UniProt P28062); assay: IC50 against chymotryptic β5i activity of human immunoproteasome (96-well plate, Ac-ANW-AMC); format: biochemical; conditions: β5i; substrate Ac-ANW-AMC; read-out: IC50 Hu i-20S (Ac-ANW-AMC)
# T2 construct: purchased Boston Biochem Inc
# Method: A 96-well-plate assays were used to determine the IC50s against the chymotryptic β5 activities of the proteasomes. Both human constitutive proteasome and immunoproteasome were purchased from Boston Biochem Inc. 1 μL of 100× compound in DMSO at designated concentrations were spotted at the bottom of the wells. DMSO was used as a control. […] The hydrolysis of the substrate over time in each well was monitored at excitation 360 nm, emission 460 nm for 90 minutes. IC50s were estimated by fitting the velocities of hydrolysis against compound concentrations using PRISM. […] SDS (0.02%) was used as activator, and 0.01% BSA was used in the reaction buffer.
# Pf Gametocytes = assay: Gametocyte killing assay (DilC1(5), flow cytometry); format: cell-based; conditions: Plasmodium falciparum; NF54 peg4-tdTomato, 72 hour incubation; read-out: EC50 against Pf Gametocytes
# Method: Asexual replication of NF54 peg4-tdTomato parasites was eliminated by treating with 50 mM GlcNAc and 20 U/mL Heparin for 3 days. NF54 peg4-tdTomato parasites then were maintained using standard culture techniques. Gametocytes were induced synchronously according to Fivelman et al., “Improved Synchronous Production of Plasmodium Falciparum Gametocytes in Vitro,” Mol Biochemo Parasitol. 154(1):119-123 (2007), which is hereby incorporated by reference in its entirety. Asexual replication was eliminated by treating with 50 mM GlcNAc for 3 days. Gametocyte killing assays were setup on days 5 and 10 in triplicate 96-well format at 1% hematocrit and 2% gametocytemia. Compounds were setup in triplicate and serially diluted 3-fold. In addition, 6 solvent controls (DMSO) were distributed evenly across the plate. Following a 72 hour incubation, Stage III-IV (Day 5-7) and Stage IV-V (Day 10-12), (start the incubation in the afternoon on Day 5 and Day 10, take out plate for assay on Day8 and Day13 afternoon) cultures were stained with 16 nM Hoechst 33342 and 50 nM DilC1(5) for 30 min at 37 C. Using a Cytek DxP12 flow cytometer, gametocytemia was determined by gating for DNA+, hemozoin-high cells and gametocyte viability was inferred based on mitochondrial membrane potential-dependent accumulation of DilC1(5) for 2000-3000 gametocytes (Tanaka et al., “Potent Plasmodium Falciparum Gametocytocidal Activity of Diaminonaphthoquinones, Lead Antimalarial Chemotypes Identified in an Antimalarial Compound Screen,” Antimicrob. Agents Chemother. 2015, 59:1389 (2015), which is hereby incorporated by reference in its entirety). Mean DilC1(5) signal was normalized to solvent control and the overall minimum and used to calculate the EC50 (FIG. 3 and Table 4).
compound,measurement,setting,value
CC(C)(C)NC(=O)C[C@H](NC(=O)CCc1ccccc1)C(=O)NCCNC(=O)c1cccc(-c2ccccc2)c1 [PKS21004],labeling of Pf20S β5 by MV151,Pf20S β5,block labeling; also recorded: inhibited the labeling
same,accumulation of poly-ubiquitinated proteins,P. falciparum schizonts,accumulation of poly-ubiquitinated proteins
same,Ki,c-20S β5c,550 nM
same,α for c-20S,c-20S β5c; fit to equation for noncompetitive inhibitors,0.98 and ≈ 0.57
same,modality of inhibition of β5c,c-20S β5c; with respect to substrate,noncompetitive inhibitor
same,EC50,"Plasmodium falciparum; D6, Erythrocyte, read-out: EC50s against P. falciparum strain D6",4 nM
same,EC50,"Plasmodium falciparum; DD2, Erythrocyte, read-out: EC50s against P. falciparum strain Dd2",4.8 nM
same,EC50,"Plasmodium falciparum; Erythrocyte, P.f. 3D7, growth in red blood cells, read-out: EC50 (nM) (P.f.)",4.6 nM
same,EC50,"Plasmodium falciparum; Erythrocyte, read-out: EC50s against P. falciparum strain IPC 3663",6 nM
same,EC50,"Plasmodium falciparum; Erythrocyte, read-out: EC50s against P. falciparum strain IPC 4884",5.2 nM
same,EC50,"Plasmodium falciparum; Erythrocyte, read-out: EC50s against P. falciparum strain IPC 4912",5.8 nM
same,EC50,"Plasmodium falciparum; Erythrocyte, read-out: EC50s against P. falciparum strain IPC 5188",1.5 nM
same,EC50,"Plasmodium falciparum; Erythrocyte, read-out: EC50s against P. falciparum strain Sb1-a6",4.8 nM
same,EC50,"Plasmodium falciparum; Erythrocyte, read-out: EC50s against P. falciparum strain V1S",1.7 nM
same,EC50,"Plasmodium falciparum; HB3, Erythrocyte, read-out: EC50s against P. falciparum strain HB3",10 nM
same,EC50,"P. berghei; read-out: EC50 killing of P. berghei, compound & sporozoites incubated with HepG2, media replaced after 14 hours",21 nM
same,EC50,"P. berghei; compound & sporozoites incubated with HepG2, media replaced after 6 hours, read-out: EC50 killing of P. berghei, 6 hours",41 nM
same,EC50,"P. berghei; sporozoites pre-treated 30 minutes on ice, added to HepG2, media replaced after 4 hours, read-out: EC50 killing of P. berghei, sporozoites pre-treated (P/T)",157 nM
same,IC50,[1],58 nM
same,EC50,Pf Gametocytes,50 nM
